This passage reports IC50 results from patent US20240109930A1, “TRIAZOLYL-METHYL SUBSTITUTED ALPHA-D-GALACTOPYRANOSIDE DERIVATIVES” (Idorsia Pharmaceuticals Ltd, priority 2021, published 2024).

One assay concerns the target human Gal-3 (hGal-3) (Homo sapiens (Human), UniProt P17931). The experiment in a line: Competitive binding assay: biotinylated hGal-3 binding to microplate-adsorbed asialofetuin (ASF). To be noted: IC50 values from several measurements given as geomean. The procedure, abridged: (§1)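 Biotinylated hGal-3 or hGal-1 (preferably cysteine-free Cys→Ser mutant), 300–1000 ng/mL, competes with compound for ASF-coated wells for 3 h at 4 °C. Bound lectin detected with streptavidin-peroxidase (80 ng/mL, 1 h, 4 °C) and ABTS by absorbance; IC50 reported as geomean of several runs.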

The target in the next assay is human Gal-1 (hGal-1) (Homo sapiens, UniProt P09382, C131S/C17S/C43S/C61S/C89S). Nature of the assay: Competitive binding assay: biotinylated hGal-1 binding to microplate-adsorbed asialofetuin (ASF). To be noted: IC50 values from several measurements given as geomean. The procedure, abridged:
as §1

Chain of human Gal-3 (hGal-3) (P17931 whole entry): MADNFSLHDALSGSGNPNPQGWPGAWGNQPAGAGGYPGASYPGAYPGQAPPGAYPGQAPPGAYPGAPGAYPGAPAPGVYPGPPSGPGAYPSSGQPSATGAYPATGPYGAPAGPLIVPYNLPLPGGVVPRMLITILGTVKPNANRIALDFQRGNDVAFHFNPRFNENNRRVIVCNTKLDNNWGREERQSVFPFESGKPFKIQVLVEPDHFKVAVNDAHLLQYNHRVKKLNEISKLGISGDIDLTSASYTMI

By IC50 is commonly meant the concentration that inhibits the measured activity by half. Low readings indicate inhibition by little substance, high ones a need for much substance. For the compound `CO[C@@H]1[C@@H](n2cc(-c3ccc(Br)c(F)c3F)nn2)[C@@H](O)[C@@H](CO)O[C@@H]1Cc1cn(C2(C(F)F)CC2)nn1` [Ex 4.1.51.], the IC50 at human Gal-3 (hGal-3) was determined as 30 nM; on human Gal-1 (hGal-1) it was 1290 nM.
Take `CO[C@@H]1[C@@H](n2cc(-c3ccc(Br)c(F)c3F)nn2)[C@@H](O)[C@@H](CO)O[C@@H]1Cc1cn(C2(CF)COC2)nn1` [Ex 4.1.52., (2R,3R,4S,5R,6R)-4-(4-(4-bromo-2,3-difluorophenyl)-1H-1,2,3-triazol-1-yl)-6-((1-(3-(fluoromethyl)oxetan-3-yl)-1H-1,2,3-triazol-4-yl)methyl)-2-(hydroxymethyl)-5-methoxytetrahydro-2H-pyran-3-ol]: the IC50 is 30 nM on human Gal-3 (hGal-3) and 850 nM at human Gal-1 (hGal-1).
On to `CO[C@@H]1[C@@H](n2cc(-c3ccc(Br)c(F)c3F)nn2)[C@@H](O)[C@@H](CO)O[C@@H]1Cc1cn(C2(C(F)F)COC2)nn1` [Ex 4.1.53.], for which the IC50 on human Gal-3 (hGal-3) worked out at 20 nM; at human Gal-1 (hGal-1), 650 nM.
As to `CO[C@@H]1[C@@H](n2cc(-c3ccc(Br)c(F)c3F)nn2)[C@@H](O)[C@@H](CO)O[C@@H]1Cc1cn(C2(C(F)(F)F)CC2)nn1` [Ex 4.1.54.], the IC50 on human Gal-3 (hGal-3) came out at 30 nM; on human Gal-1 (hGal-1), 1170 nM.
Consider `CO[C@@H]1[C@@H](n2cc(-c3ccc(Br)c(F)c3F)nn2)[C@@H](O)[C@@H](CO)O[C@@H]1Cc1cn(C2(C(F)(F)F)CCC2)nn1` [Ex 4.1.55., (2R,3R,4S,5R,6R)-4-(4-(4-bromo-2,3-difluorophenyl)-1H-1,2,3-triazol-1-yl)-2-(hydroxymethyl)-5-methoxy-6-((1-(1-(trifluoromethyl)cyclobutyl)-1H-1,2,3-triazol-4-yl)methyl)tetrahydro-2H-pyran-3-ol], for which the IC50 worked out at 30 nM on human Gal-3 (hGal-3) and 1480 nM on human Gal-1 (hGal-1).
Take `CO[C@@H]1[C@@H](n2cc(-c3ccc(Br)c(F)c3F)nn2)[C@@H](O)[C@@H](CO)O[C@@H]1Cc1cn(C2(C(F)(F)F)COC2)nn1` [Ex 4.1.58.]: the IC50 was determined as 20 nM at human Gal-3 (hGal-3) and 1070 nM on human Gal-1 (hGal-1).
The corresponding values for `CO[C@@H]1[C@@H](n2cc(-c3ccc(Br)c(F)c3F)nn2)[C@@H](O)[C@@H](CO)O[C@@H]1Cc1cn(C23COC(C)(C2)C3)nn1` [Ex 4.1.59., (2R,3R,4S,5R,6R)-4-(4-(4-bromo-2,3-difluorophenyl)-1H-1,2,3-triazol-1-yl)-2-(hydroxymethyl)-5-methoxy-6-((1-(1-methyl-2-oxabicyclo[2.1.1]hexan-4-yl)-1H-1,2,3-triazol-4-yl)methyl)tetrahydro-2H-pyran-3-ol] are 30 nM and 2030 nM.
In the case of `CO[C@@H]1[C@@H](n2cc(-c3ccc(Br)c(F)c3F)nn2)[C@@H](O)[C@@H](CO)O[C@@H]1Cc1cn(C23CCOC(C)(C2)C3)nn1` [Ex 4.1.62., (2R,3R,4S,5R,6R)-4-(4-(4-bromo-2,3-difluorophenyl)-1H-1,2,3-triazol-1-yl)-2-(hydroxymethyl)-5-methoxy-6-((1-(1-methyl-2-oxabicyclo[3.1.1]heptan-5-yl)-1H-1,2,3-triazol-4-yl)methyl)tetrahydro-2H-pyran-3-ol], the IC50 stood at 20 nM at human Gal-3 (hGal-3) and 2030 nM on human Gal-1 (hGal-1).
The corresponding values for `CO[C@@H]1[C@@H](n2cc(-c3ccc(Br)c(F)c3F)nn2)[C@@H](O)[C@@H](CO)O[C@@H]1Cn1cc(C2(CO)CC2)nn1` [Ex 4.2.4.] are 70 nM and 4640 nM.
For `CO[C@@H]1[C@@H](n2cc(-c3ccc(Br)c(F)c3F)nn2)[C@@H](O)[C@@H](CO)O[C@@H]1Cn1cc(C2(C)COC2)nn1` [Ex 4.2.6.], the values for the IC50 on human Gal-3 (hGal-3) and on human Gal-1 (hGal-1) were 70 nM and 2530 nM, respectively.
For `CO[C@@H]1[C@@H](n2cc(-c3ccc(Br)c(F)c3F)nn2)[C@@H](O)[C@@H](CO)O[C@@H]1Cn1cc(C23CC(C2)C3)nn1` [Ex 4.2.12.], the values for the IC50 at human Gal-3 (hGal-3) and at human Gal-1 (hGal-1) were 90 nM and 3310 nM, respectively.
The corresponding values for `CO[C@@H]1[C@@H](n2cc(-c3ccc(Br)c(F)c3F)nn2)[C@@H](O)[C@@H](CO)O[C@@H]1Cn1cc(C2(C)CCC2)nn1` [Ex 4.2.13.] are 50 nM and 1930 nM.
